Measured values published in ChEMBL document CHEMBL5291721, “A preclinical secondary pharmacology resource illuminates target-adverse drug reaction associations of marketed drugs” (Nat Commun, 2023).

How the values were obtained:
[1] = target: T1, Alpha-2B adrenergic receptor (Homo sapiens, UniProt P18089)
T1 sequence (P18089 whole entry): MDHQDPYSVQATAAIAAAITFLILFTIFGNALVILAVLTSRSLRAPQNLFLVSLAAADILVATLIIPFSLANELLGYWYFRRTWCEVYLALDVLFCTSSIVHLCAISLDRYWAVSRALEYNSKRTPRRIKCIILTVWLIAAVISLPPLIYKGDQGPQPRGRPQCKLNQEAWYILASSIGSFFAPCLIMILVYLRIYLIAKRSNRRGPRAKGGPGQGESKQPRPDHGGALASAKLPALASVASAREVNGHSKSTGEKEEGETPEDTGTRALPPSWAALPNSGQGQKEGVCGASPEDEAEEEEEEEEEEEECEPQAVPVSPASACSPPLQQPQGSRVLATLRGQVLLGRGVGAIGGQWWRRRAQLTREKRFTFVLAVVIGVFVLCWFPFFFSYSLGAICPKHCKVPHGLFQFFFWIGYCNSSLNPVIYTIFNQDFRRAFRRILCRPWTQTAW

Vasopressin V1a receptor = Vasopressin V1a receptor (Homo sapiens, UniProt P37288)
Vasopressin V1a receptor, sequence (P37288 whole entry): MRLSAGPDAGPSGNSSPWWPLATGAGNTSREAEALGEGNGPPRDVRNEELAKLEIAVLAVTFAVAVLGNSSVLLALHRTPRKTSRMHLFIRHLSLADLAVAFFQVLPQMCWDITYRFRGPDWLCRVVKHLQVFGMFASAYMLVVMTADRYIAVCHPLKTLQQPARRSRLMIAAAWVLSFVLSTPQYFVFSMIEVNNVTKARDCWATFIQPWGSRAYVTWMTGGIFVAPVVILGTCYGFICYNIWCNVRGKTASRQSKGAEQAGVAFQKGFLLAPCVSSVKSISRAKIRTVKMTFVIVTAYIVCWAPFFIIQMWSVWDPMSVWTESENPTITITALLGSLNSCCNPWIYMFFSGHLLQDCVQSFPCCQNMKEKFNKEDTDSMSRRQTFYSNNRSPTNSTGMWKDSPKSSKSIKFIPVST

Vasopressin V2 receptor = Vasopressin V2 receptor (Homo sapiens, UniProt P30518)
Vasopressin V2 receptor, sequence (P30518 whole entry): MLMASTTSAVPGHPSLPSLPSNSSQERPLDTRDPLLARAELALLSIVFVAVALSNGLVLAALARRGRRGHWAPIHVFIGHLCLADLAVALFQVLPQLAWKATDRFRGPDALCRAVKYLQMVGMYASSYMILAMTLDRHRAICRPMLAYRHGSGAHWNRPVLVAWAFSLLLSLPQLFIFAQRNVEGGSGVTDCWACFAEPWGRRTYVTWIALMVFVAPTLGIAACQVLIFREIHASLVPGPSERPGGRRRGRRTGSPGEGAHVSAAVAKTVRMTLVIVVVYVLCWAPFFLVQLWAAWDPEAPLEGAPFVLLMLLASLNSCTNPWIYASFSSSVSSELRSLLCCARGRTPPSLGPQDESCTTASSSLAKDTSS

B2 bradykinin receptor = target: T2, B2 bradykinin receptor (Homo sapiens, UniProt P30411)
T2 sequence (P30411 whole entry): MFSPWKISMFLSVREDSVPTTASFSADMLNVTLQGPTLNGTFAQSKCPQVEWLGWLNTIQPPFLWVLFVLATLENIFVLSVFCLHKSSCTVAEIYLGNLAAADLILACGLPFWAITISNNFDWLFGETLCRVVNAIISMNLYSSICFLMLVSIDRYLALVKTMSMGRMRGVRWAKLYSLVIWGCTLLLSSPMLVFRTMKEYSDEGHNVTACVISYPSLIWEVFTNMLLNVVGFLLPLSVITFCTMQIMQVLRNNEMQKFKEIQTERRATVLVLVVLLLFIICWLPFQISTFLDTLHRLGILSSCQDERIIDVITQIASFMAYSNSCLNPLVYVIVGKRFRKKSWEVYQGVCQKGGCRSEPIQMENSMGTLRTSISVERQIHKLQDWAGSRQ

[2] = target: Gamma-aminobutyric acid receptor subunit alpha-1 (Rattus norvegicus, UniProt P62813)
Gamma-aminobutyric acid receptor subunit alpha-1, sequence (P62813 whole entry): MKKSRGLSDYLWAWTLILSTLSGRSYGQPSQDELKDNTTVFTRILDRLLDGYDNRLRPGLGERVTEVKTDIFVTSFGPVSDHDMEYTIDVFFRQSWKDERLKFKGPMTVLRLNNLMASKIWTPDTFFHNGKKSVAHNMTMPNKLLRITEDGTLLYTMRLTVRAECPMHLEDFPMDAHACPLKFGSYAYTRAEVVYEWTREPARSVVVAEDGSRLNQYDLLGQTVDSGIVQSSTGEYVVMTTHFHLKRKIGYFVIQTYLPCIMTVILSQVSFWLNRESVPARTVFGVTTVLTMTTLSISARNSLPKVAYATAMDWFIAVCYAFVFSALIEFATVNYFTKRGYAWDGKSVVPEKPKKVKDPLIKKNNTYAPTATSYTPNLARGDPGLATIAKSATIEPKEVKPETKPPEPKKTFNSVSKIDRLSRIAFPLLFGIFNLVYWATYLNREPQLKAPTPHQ

[3] = target: Growth hormone secretagogue receptor type 1 (Homo sapiens, UniProt Q92847)
Growth hormone secretagogue receptor type 1, sequence (Q92847 whole entry): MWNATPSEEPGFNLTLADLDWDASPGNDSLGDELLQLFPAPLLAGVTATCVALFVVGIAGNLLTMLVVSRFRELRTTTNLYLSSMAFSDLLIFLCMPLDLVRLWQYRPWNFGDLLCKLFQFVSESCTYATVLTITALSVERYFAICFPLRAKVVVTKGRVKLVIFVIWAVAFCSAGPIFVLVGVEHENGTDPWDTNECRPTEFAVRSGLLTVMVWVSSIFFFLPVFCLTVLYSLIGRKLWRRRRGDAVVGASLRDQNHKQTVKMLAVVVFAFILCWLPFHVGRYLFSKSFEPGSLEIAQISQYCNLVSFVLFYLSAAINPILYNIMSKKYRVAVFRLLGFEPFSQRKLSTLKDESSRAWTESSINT

[4] = target: Glutamate receptor ionotropic, NMDA 1 (Rattus norvegicus, UniProt P35439)
Histamine H1 receptor = Histamine H1 receptor (Homo sapiens, UniProt P35367)
Histamine H1 receptor, sequence (P35367 whole entry): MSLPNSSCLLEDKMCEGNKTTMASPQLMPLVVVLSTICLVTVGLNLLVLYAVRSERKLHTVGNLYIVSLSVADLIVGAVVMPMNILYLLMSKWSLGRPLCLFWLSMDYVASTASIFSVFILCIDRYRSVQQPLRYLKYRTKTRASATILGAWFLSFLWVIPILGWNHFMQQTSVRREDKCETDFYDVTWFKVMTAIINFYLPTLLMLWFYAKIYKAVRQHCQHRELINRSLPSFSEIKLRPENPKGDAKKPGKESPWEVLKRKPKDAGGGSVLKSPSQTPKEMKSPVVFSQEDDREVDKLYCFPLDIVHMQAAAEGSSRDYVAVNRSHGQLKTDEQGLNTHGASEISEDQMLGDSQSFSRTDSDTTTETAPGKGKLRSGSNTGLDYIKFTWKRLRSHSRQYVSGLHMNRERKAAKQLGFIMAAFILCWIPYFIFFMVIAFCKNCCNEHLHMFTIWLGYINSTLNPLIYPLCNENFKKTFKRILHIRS

[5] = target: T3, 5-hydroxytryptamine receptor 2C (Homo sapiens, UniProt P28335)
T3 sequence (P28335 whole entry): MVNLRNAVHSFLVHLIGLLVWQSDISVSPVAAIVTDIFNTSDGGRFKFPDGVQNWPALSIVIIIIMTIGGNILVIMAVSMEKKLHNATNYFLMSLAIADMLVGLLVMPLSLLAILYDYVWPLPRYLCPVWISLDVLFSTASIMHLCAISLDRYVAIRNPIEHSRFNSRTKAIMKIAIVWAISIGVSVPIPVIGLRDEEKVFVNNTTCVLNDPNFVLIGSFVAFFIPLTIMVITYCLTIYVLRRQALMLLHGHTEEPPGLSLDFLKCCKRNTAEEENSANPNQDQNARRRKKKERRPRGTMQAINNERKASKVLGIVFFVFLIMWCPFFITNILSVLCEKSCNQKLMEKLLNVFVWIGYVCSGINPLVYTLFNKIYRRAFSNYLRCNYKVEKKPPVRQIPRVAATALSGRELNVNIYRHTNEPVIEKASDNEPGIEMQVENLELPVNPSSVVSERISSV

Melanocortin receptor 3 = Melanocortin receptor 3 (Homo sapiens, UniProt P41968)
Melanocortin receptor 3, sequence (P41968 whole entry): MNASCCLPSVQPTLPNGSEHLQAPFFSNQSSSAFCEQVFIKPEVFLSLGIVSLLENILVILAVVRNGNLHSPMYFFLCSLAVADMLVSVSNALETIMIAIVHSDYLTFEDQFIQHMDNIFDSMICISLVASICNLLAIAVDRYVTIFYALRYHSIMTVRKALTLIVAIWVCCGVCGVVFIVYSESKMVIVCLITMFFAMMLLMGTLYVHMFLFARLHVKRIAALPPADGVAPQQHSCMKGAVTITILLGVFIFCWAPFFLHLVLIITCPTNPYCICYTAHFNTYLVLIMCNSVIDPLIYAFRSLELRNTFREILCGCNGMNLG

[6] = target: T4, Prostaglandin G/H synthase 1 (Rattus norvegicus, UniProt Q63921); type: functional
T4 sequence (Q63921 whole entry): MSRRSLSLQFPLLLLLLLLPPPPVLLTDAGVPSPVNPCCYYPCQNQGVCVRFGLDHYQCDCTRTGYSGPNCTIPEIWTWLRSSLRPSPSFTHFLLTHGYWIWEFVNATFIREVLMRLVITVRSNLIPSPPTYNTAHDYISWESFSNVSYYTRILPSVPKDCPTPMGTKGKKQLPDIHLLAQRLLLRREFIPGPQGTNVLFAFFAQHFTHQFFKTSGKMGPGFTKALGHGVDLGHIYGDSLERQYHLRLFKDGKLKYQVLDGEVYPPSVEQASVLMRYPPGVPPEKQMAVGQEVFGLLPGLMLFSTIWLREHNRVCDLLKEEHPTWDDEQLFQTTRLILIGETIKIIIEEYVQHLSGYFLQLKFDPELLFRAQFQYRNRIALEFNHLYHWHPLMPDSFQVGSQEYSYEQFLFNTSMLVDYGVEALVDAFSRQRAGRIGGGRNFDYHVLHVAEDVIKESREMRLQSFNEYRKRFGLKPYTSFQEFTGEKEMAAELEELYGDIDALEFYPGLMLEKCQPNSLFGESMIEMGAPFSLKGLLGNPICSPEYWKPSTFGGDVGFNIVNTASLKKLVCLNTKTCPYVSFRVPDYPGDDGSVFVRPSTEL

[7] = target: Sodium-dependent dopamine transporter (Homo sapiens, UniProt Q01959)
Sodium-dependent dopamine transporter, sequence (Q01959 whole entry): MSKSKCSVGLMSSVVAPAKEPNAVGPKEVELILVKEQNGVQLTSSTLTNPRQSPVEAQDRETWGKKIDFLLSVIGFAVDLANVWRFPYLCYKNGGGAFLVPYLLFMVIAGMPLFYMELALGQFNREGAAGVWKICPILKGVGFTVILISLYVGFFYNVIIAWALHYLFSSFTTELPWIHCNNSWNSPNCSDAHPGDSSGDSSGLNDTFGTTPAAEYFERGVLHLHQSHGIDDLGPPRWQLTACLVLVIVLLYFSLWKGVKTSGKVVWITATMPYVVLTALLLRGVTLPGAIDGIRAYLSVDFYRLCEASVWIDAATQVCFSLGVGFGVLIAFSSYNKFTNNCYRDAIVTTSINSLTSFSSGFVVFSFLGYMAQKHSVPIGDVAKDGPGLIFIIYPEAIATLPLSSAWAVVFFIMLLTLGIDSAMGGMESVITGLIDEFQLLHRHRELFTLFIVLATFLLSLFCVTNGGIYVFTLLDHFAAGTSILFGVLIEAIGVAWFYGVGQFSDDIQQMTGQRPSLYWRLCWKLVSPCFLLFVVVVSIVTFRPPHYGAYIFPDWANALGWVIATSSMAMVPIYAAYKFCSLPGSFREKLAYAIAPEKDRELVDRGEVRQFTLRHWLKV

D(3) dopamine receptor = D(3) dopamine receptor (Homo sapiens, UniProt P35462)
D(3) dopamine receptor, sequence (P35462 whole entry): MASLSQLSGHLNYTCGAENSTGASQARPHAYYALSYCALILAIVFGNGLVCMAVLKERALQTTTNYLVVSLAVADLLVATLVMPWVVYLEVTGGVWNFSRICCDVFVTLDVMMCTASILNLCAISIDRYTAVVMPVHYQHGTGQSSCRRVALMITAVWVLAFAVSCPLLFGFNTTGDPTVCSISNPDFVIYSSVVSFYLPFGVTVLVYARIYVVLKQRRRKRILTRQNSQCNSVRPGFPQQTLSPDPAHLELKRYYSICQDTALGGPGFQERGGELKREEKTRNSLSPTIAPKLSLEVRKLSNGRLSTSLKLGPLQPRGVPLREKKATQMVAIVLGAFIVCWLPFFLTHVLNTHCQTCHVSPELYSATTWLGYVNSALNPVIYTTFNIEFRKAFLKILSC

Histamine H3 receptor = Histamine H3 receptor (Homo sapiens, UniProt Q9Y5N1)
Histamine H3 receptor, sequence (Q9Y5N1 whole entry): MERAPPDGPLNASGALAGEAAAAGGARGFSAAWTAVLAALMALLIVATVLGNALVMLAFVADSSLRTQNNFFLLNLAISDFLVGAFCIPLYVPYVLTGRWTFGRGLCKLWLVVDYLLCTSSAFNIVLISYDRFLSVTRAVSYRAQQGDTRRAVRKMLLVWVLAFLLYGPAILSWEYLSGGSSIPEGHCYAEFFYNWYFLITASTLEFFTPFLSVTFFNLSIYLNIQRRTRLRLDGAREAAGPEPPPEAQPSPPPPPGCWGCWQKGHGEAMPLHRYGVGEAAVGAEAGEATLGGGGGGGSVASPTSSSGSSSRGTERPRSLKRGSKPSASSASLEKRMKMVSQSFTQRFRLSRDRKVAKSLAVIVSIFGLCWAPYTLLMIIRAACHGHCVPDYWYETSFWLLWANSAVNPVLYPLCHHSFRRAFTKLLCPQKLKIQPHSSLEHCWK

[8] = target: T5, 5-hydroxytryptamine receptor 1A (Homo sapiens, UniProt P08908); type: functional, cell-based
T5 sequence (P08908 whole entry): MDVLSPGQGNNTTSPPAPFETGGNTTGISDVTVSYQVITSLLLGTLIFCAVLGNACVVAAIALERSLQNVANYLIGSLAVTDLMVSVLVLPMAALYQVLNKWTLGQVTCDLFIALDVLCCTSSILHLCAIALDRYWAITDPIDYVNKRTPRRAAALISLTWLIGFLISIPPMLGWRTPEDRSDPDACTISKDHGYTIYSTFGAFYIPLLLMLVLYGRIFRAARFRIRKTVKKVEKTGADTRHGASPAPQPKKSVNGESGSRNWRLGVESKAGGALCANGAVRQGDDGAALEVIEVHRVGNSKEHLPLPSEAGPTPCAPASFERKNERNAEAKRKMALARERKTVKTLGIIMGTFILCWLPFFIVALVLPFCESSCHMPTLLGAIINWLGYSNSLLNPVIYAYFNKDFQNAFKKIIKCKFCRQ
Also: assay procedure not described here.

Row | AC50 [1] [µM] | AC50 (Vasopressin V1a receptor) [µM] | AC50 (Vasopressin V2 receptor) [µM] | AC50 (B2 bradykinin receptor) [µM] | AC50 [2] [µM] | AC50 [3] [µM] | AC50 [4] [µM] | AC50 [5] [µM] | AC50 (Melanocortin receptor 3) [µM] | AC50 [6] [µM] | AC50 [7] [µM] | AC50 (D(3) dopamine receptor) [µM] | AC50 (Histamine H3 receptor) [µM] | AC50 [8] [µM] | Compound | AC50 (Histamine H1 receptor) [µM]
1 | > 30 | > 30 | > 30 | > 30 | > 30 | > 30 | > 30 | > 30 | > 30 | > 30 | > 30 | > 30 | > 30 |  | CC(C)(Oc1ccc(Cl)cc1)C(=O)OCCOC(=O)c1cccnc1 [ETOFIBRATE] | > 30
2 | > 10 | > 10 | > 10 | > 10 | > 10 | > 10 | > 10 | > 30 | > 10 | 0.653 | > 10 | > 30 | > 10 | > 30 | CN(C)[C@@H]1C(O)=C(C(=O)NCN2CCCC2)C(=O)[C@@]2(O)C(O)=C3C(=O)c4c(O)cccc4[C@@](C)(O)[C@H]3C[C@@H]12 [ROLITETRACYCLINE] | > 10
3 | 0.32 | > 10 | > 10 | > 10 | > 10 | > 10 | > 10 | 0.18 | > 10 | > 10 | > 10 | 0.53 | > 10 | > 30 | CCC(=O)c1ccc2c(c1)N(CC(C)N(C)C)c1ccccc1S2 (configuration not stated) [PROPIOMAZINE] | 0.034
4 | > 30 | 8.7 | > 30 | > 30 | > 30 | > 30 | > 30 | > 30 | 18 | > 30 | 10 | > 30 | > 10 | > 30 | COc1ccc(-c2cc(=S)ss2)cc1 [ANETHOLTRITHION] | > 30
5 | > 10 | > 10 | > 10 | > 10 | > 10 | > 10 | > 10 | 8.3 | > 10 | > 10 | > 10 | > 30 | > 10 | > 10 | CN(C)CCC(O)(c1ccccc1)c1ccccc1Cl (configuration not stated) [CHLOPHEDIANOL] | > 10
6 |  | > 30 | > 30 | > 30 | > 10 | > 30 | > 10 | > 30 | > 30 | > 30 | > 30 | > 30 | > 10 | > 10 | C[C@]12C=CC(=O)C=C1CC[C@@H]1[C@@H]2[C@@H](O)C[C@@]2(C)[C@H]1CC[C@]2(O)C(=O)CO [PREDNISOLONE] | 
7 |  |  | > 30 | > 30 | > 30 | > 30 | > 30 | > 30 | > 30 | > 30 | > 30 | > 30 | > 30 | > 30 | CC1(C)O[C@@H]2C[C@H]3[C@@H]4CCC5=CC(=O)C=C[C@]5(C)[C@@]4(F)[C@@H](O)C[C@]3(C)[C@]2(C(=O)CO)O1 [TRIAMCINOLONE ACETONIDE] | 

Row | Compound | AC50 [1] [µM] | AC50 (Vasopressin V1a receptor) [µM] | AC50 (Vasopressin V2 receptor) [µM] | AC50 (B2 bradykinin receptor) [µM] | AC50 [2] [µM] | AC50 [3] [µM] | AC50 [4] [µM] | AC50 [5] [µM] | AC50 (Melanocortin receptor 3) [µM] | AC50 [6] [µM] | AC50 [7] [µM] | AC50 (D(3) dopamine receptor) [µM] | AC50 (Histamine H3 receptor) [µM] | AC50 [8] [µM] | AC50 (Histamine H1 receptor) [µM]
8 | CN1C(C(=O)Nc2ccccn2)=C(OC(=O)/C=C/c2ccccc2)c2ccccc2S1(=O)=O [PIROXICAM CINNAMATE] |  |  |  |  |  |  |  |  |  | > 300 |  |  |  |  | 
9 | COc1ccc(C(=O)c2ccccc2)c(O)c1 [OXYBENZONE] | > 30 |  |  |  | > 30 |  | > 30 | > 30 |  |  |  | > 30 |  | > 30 | 17
10 | CCn1c(=O)c2c(nc(/C=C/c3ccc(OC)c(OC)c3)n2C)n(CC)c1=O [ISTRADEFYLLINE] |  |  |  |  |  |  |  |  | > 30 | > 30 | > 30 |  |  |  | > 30
11 | Cc1cn(-c2cc(NC(=O)c3ccc(C)c(Nc4nccc(-c5cnccn5)n4)c3)cc(C(F)(F)F)c2)cn1 [RADOTINIB] |  |  |  |  |  |  |  |  | > 30 | > 30 | > 30 |  |  |  | > 30
12 | Cc1ccc(O)c([C@H](CCN(C(C)C)C(C)C)c2ccccc2)c1 [TOLTERODINE] | > 10 |  |  |  | > 30 |  | > 10 | > 30 |  |  | > 10 | > 10 | > 30 | > 10 | 4.06
13 | N=C(N)NC(=O)c1nc(Cl)c(N)nc1N [AMILORIDE] |  | > 30 | > 30 | > 30 | > 30 | > 30 | > 30 | > 30 | > 30 | > 30 | > 30 | > 30 | > 30 | > 30 | 
14 | CC(C)(C)NCC(O)COc1ccccc1C#N (configuration not stated) [BUNITROLOL] | 26 |  |  |  | > 30 |  | > 30 | > 30 |  |  |  | > 30 |  | > 30 | > 30
15 | COc1cccc2c1C(=O)c1c(O)c3c(c(O)c1C2=O)C[C@@](O)(C(=O)CO)C[C@@H]3O[C@H]1C[C@H](N)[C@H](O)[C@H](C)O1 [DOXORUBICIN] |  | > 30 | > 30 | > 30 | > 10 | > 30 | > 10 | > 30 | > 30 | > 30 | > 30 | > 30 | > 30 | > 30 | 
